Source: PubChem BioAssay AID652230 (The Scripps Research Institute Molecular Screening Center, 2013)
The source made the active and inactive calls.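 Rule for the calls: active = IC50 below 10 µM for blocking the phosphatase PP5; inactive = IC50 at or above 10 µM.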

Target: Serine/threonine-protein phosphatase 5 (Homo sapiens) (UniProt P53041)
Assay: PP5 inhibitor potency, OMFP dephosphorylation, dose response, selectivity assay for PP1 inhibitor project, biochemical, fluorescence, OMFP substrate, powder samples, set 2 (AID 652230)
Settings: purified PP5c

Sequence of Serine/threonine-protein phosphatase 5 (Homo sapiens) (P53041 whole entry, looked up): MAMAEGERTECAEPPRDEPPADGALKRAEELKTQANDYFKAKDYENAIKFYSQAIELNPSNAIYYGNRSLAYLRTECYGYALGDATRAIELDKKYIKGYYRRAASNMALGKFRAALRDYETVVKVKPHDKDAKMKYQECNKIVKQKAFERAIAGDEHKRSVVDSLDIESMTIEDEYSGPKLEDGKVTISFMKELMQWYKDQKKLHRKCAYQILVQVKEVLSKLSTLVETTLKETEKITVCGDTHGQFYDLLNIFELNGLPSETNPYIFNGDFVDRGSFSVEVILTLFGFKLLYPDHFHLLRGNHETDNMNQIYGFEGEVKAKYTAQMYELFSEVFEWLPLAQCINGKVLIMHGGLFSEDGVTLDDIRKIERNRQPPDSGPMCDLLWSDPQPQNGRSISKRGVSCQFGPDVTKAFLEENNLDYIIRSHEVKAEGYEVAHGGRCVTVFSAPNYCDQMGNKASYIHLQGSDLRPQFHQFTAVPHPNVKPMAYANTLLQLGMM

IC50 | Structure (SMILES)
inactive | CN1CCN([C@H](c2ncccn2)c2ccc3cccnc3c2O)CC1
inactive | CN1CCN([C@@H](c2ncccn2)c2ccc3cccnc3c2O)CC1
